In ChEMBL document CHEMBL1795204 (2011):
Calls of active or inactive are those of the source. The calls are words filed in the database; no cut-off is given here.

What follows are compounds tested on Haemonchus contortus (assay: Anthelmintic activity against Ivermectin-resistant Haemonchus contortus CAVR).
Type: functional
CCCOc1ccc2nc(-c3ccc4c(c3)OCO4)cn2n1 gave an LD99 of 1.85 µM.

The compounds below were run on Haemonchus contortus (assay: Anthelmintic activity against benzimidazole and Levamisole-resistant Haemonchus contortus Lawes).
Type: functional
Compound CCCOc1ccc2nc(-c3ccc4c(c3)OCO4)cn2n1 has an LD99 of 0.67 µM.

These compounds were tested on Teladorsagia circumcincta (assay: Anthelmintic activity against Ostertagia circumcincta).
Type: functional
With CCCOc1ccc2nc(-c3ccc4c(c3)OCO4)cn2n1 the LD99 was 0.33 µM.

The compounds below were run on Haemonchus contortus (assay: Anthelmintic activity against Haemonchus contortus McMaster by larvel development assay).
Type: functional
With COCCOc1ccc(-c2cn3nc(OC(C)C)ccc3n2)cc1 the LD99 was 4.96 µM. With CCCNc1ccc2nc(-c3ccc(OCCOC)cc3)cn2n1 the LD99 was 2.11 µM. CCCOc1nn2cc(-c3ccc(OCCOC)cc3)nc2c2ccccc12 was tested, and the LD99 was 0.91 µM. COCCOc1ccc(-c2cn3nc(-c4ccsc4)ccc3n2)cc1 gave an LD99 of 1.96 µM. With CCCOc1ccc2nc(-c3cccc(OC)c3)cn2n1 the LD99 was 0.81 µM. CCCOc1nn2cc(-c3ccc(OCC)cc3)nc2cc1C showed an LD99 of 0.6 µM. With CCCOc1ccc2nc(-c3ccc4c(c3)OCCO4)cn2n1 the LD99 was 2.6 µM. CCCOc1ccc2nc(-c3ccc4c(c3)OCO4)cn2n1 showed an LD99 of 0.77 µM. With CCCOc1nn2cc(-c3ccc(OCCOC)c(OC)c3)nc2cc1C the LD99 was 0.32 µM. With COCCOc1ccc(-c2cn3ncccc3n2)cc1 the LD99 was “inactive”. With COCCOc1ccc(-c2cn3nc(-c4ccccc4)ccc3n2)cc1 the LD99 was 8.11 µM. For COCCOc1ccc(-c2cn3nc(OC4CCCC4)ccc3n2)cc1, the LD99 was 5.31 µM. CCCCc1ccc2nc(-c3ccc(OCCOC)cc3)cn2n1 was tested, and the LD99 was 1.92 µM. For CCOc1ccc(-c2cn3nc(OCC4CC4)ccc3n2)cc1, the LD99 was 0.09 µM. With CCCOc1nn2cc(-c3ccc(OCC)cc3)nc2c2ccccc12 the LD99 was 1.8 µM. With COCCOc1ccc(-c2cn3nc(OCC4CC4)ccc3n2)cc1 the LD99 was 0.11 µM. CCCOc1ccc2nc(-c3ccc(Cl)cc3)cn2n1 showed an LD99 of 13.03 µM. In the case of CCCOc1ccc2nc(-c3ccc(OCCOC)cc3)c(Br)n2n1, the LD99 is reported as 0.03 µM. CCCCSc1ccc2nc(-c3ccc(C(F)(F)F)cc3)cn2n1 was tested, and the LD99 was “inactive”. With COCCOc1cccc(-c2nc3ccc(OC(C)C)nn3c2C)c1 the LD99 was 14.65 µM. Work on COCCOc1ccc(-c2nc3ccc(OCC4CC4)nn3c2Br)cc1 yielded an LD99 of 0.1 µM. With CCCSc1ccc2nc(-c3ccc(Cl)cc3Cl)cn2n1 the LD99 was “inactive”. Compound CCCOc1ccc2nc(-c3ccc(OCCOC)cc3)c(C#N)n2n1 has an LD99 of 0.11 µM. In the case of CCCOc1ccc2nc(-c3ccc(OCCOC)c(OC)c3)c(C#N)n2n1, the LD99 is reported as “inactive”. Work on CCOc1ccc2nc(-c3ccc(OCCOC)cc3)cn2n1 yielded an LD99 of 1.3 µM. CCCSc1ccc2nc(-c3cccc(OC)c3)cn2n1 gave an LD99 of 2.1 µM. For CCOCCOc1ccc(-c2cn3nc(SCC(C)C)ccc3n2)cc1, the LD99 was 0.87 µM. Compound CCCOc1ccc2nc(-c3ccc(OCCOCC)cc3)cn2n1 has an LD99 of 0.32 µM. In the case of FC(F)(F)c1ccc(-c2cn3nc(OCC4CC4)ccc3n2)cc1, the LD99 is reported as “inactive”. CCCOc1ccc2nc(-c3ccc(OCCOC)cc3)cn2n1 was tested, and the LD99 was 0.29 µM. CCCCN(C)c1ccc2nc(-c3ccc(OCCOC)cc3)cn2n1 was tested, and the LD99 was 2.29 µM. For CCCCOc1ccc2nc(-c3ccc(OCCOC)cc3)cn2n1, the LD99 was 0.64 µM. With CCCOc1ccc2nc(-c3ccc(OCCOC)cc3)c(Cl)n2n1 the LD99 was 0.06 µM. CCCOc1ccc2nc(-c3cccc(OCCOC)c3)c(C)n2n1 was tested, and the LD99 was 5.49 µM. With COCCOc1ccc(-c2cn3nc(N4CCCC4)ccc3n2)cc1 the LD99 was 9.6 µM. In the case of CCCOc1ccc2nc(-c3ccc(OCCOC)cc3)c(I)n2n1, the LD99 is reported as 0.03 µM. In the case of c1ccc([C@H]2CN3CCSC3=N2)cc1 [LEVAMISOLE], the LD99 is reported as 0.66 µM. CCCSc1ccc2nc(-c3ccc(OCCOC)c(OC)c3)c(Br)n2n1 was tested, and the LD99 was 1.66 µM. CCCOc1ccc2nc(-c3ccc(OC)c(OC)c3)cn2n1 gave an LD99 of 4.15 µM. For CCCSc1ccc2nc(-c3ccc(OCCOC)c(OC)c3)cn2n1, the LD99 was 2.17 µM. Work on COCCOc1ccc(-c2cn3nc(OCCOC)ccc3n2)cc1 yielded an LD99 of 17.47 µM. Compound CCCSc1ccc2nc(-c3ccc(OCC)cc3)cn2n1 has an LD99 of 1.21 µM. IVERMECTIN showed an LD99 of 0.006 µM. CCCCSc1ccc2nc(-c3ccc(OCCOC)cc3)cn2n1 showed an LD99 of 0.26 µM. COCCOc1ccc(-c2cn3nc(SC(C)C)ccc3n2)cc1 gave an LD99 of 0.59 µM. Compound CCCOc1ccc2nc(-c3ccc(OCCOC)c(OC)c3)c(I)n2n1 has an LD99 of 10.35 µM. In the case of CCCOc1ccc2nc(-c3ccc(OCCOC)cc3)c(C)n2n1, the LD99 is reported as 0.32 µM. Work on CCCOc1ccc2nc(-c3ccc(OCCOC)cc3)c(-c3ccccc3)n2n1 yielded an LD99 of 9.29 µM. For COCCOc1ccc(-c2nc3ccc(OCc4ccccc4)nn3c2Cl)cc1, the LD99 was “inactive”. COCCOc1cccc(-c2nc3ccc(SC(C)C)nn3c2C)c1 was tested, and the LD99 was 19.58 µM. Compound CCc1ccc(-c2cn3nc(OCC4CC4)ccc3n2)cc1 has an LD99 of 0.27 µM. Compound CCOCCOc1ccc(-c2cn3nc(OCC4CC4)ccc3n2)cc1 has an LD99 of 0.11 µM. CCCOc1ccc2nc(-c3ccc(OCCOC)c(OC)c3)cn2n1 showed an LD99 of 2.27 µM. CCCOc1ccc2nc(-c3ccccc3)cn2n1 was tested, and the LD99 was “inactive”. In the case of Clc1ccc(-c2cn3nc(OCC4CC4)ccc3n2)c(Cl)c1, the LD99 is reported as “inactive”. For CCCCSc1ccc2nc(-c3ccc(OCCOCC)cc3)cn2n1, the LD99 was 0.59 µM. For CCCSc1ccc2nc(-c3ccc(OCCOC)cc3)cn2n1, the LD99 was 2.36 µM.

The compounds below were run on Haemonchus contortus (assay: Anthelmintic activity against benzimidazole-resistant Haemonchus contortus VRSG).
Type: functional
CCCOc1ccc2nc(-c3ccc4c(c3)OCO4)cn2n1 was tested, and the LD99 was 0.94 µM.

The compounds below were run on Trichostrongylus colubriformis (assay: Anthelmintic activity against Trichostrongylus colubriformis McMaster).
Type: functional
Compound CCCOc1ccc2nc(-c3ccc4c(c3)OCO4)cn2n1 has an LD99 of 0.67 µM.
